Results from ChEMBL document CHEMBL1144284, “Pharmacophore identification of alpha(1A)-adrenoceptor antagonists” (Bioorg Med Chem Lett, 2005).
pKi: −log10 of the molar value.

Tests used:
Type in all cases: tissue-based, Prostate gland
[1] = molecular target: T1, Alpha-1A adrenergic receptor (Homo sapiens, UniProt P35348); test: Binding constant measured against Alpha-1A adrenergic receptor in human prostate; +:inactive
T1 sequence (P35348 whole entry): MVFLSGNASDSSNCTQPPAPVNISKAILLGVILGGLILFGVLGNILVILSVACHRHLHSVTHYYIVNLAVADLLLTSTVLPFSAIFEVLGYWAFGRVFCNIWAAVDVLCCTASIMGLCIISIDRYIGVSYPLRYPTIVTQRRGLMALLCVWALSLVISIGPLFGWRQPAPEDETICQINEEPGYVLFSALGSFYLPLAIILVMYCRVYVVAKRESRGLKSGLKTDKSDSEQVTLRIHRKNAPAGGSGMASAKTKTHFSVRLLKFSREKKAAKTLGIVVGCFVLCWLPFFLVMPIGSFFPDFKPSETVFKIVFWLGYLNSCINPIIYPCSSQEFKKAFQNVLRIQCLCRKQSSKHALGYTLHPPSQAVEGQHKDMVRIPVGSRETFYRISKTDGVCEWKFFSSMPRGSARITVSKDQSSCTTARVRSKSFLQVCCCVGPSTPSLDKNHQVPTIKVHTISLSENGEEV

[2] = molecular target: T1, Alpha-1A adrenergic receptor; test: Binding constant measured against Alpha-1A adrenergic receptor in human prostate; ++:moderately active
[3] = molecular target: T1, Alpha-1A adrenergic receptor; test: Binding constant measured against Alpha-1A adrenergic receptor in human prostate; +++:highly active

Compound | pKi [2] | pKi [3] | other results
COc1cc2c3c(c1OC)-c1cc4c(cc1C[C@@H]3N(C)CC2)OCO4 |  |  | pKi [1]: 6.37
CCOC(=O)C1CCC(=O)N1CC(=O)CCN1CCN(c2ccccc2OC(C)C)CC1 (stereo not given) | 7.23 |  | 
N=C(Nc1ccccc1)N1CCN(/C=C2/N=C(c3cccc4ccccc34)OC2=O)CC1 | 7.39 |  | 
COc1cccc(OC)c1OCCNC[C@H]1CSc2ccccc2O1 |  | 9.70 | 
N=C(CC(O)COc1ccccc1-c1ccccc1)N1CCCCC1 (stereo not given) |  |  | pKi [1]: 5.60
COCC1=C(C(=O)OC)[C@H](c2ccc(F)c(F)c2)N(C(=O)NCCCN2CCC(c3ccccn3)CC2)C(=O)N1 |  | 9.44 | 
COc1ccc(Cl)cc1N1CCN(CCCNc2nccc(C(N)=O)n2)CC1 | 8.70 |  | 
C[C@@]1(O)C(=O)N(CCCN2CCN(c3ccc(F)cc3OCC(F)(F)F)CC2)C(=O)N[C@@H]1O | 8.30 |  | 
COc1ccccc1N1CCN(CCN2C(=O)c3ccccc3C(C)(C)C2=O)CC1 | 9.00 |  | 
CCS(=O)(=O)Nc1cccc(C(=C2CCCCC2)c2c[nH]cn2)c1 |  |  | pKi [1]: 6.31
COc1cccc(OC)c1OCCNCC1Oc2ccccc2OC1c1ccc(C)cc1 (stereo not given) | 8.39 |  | 
COc1cccc(OC)c1OCCNC[C@@H]1Oc2ccccc2O[C@H]1c1ccc(C)cc1 |  | 9.46 | 
CC(C)(Cc1c[nH]c2ccc(Cl)cc12)NCCOc1ccccc1OCC1CC1 |  | 9.22 | 
C[C@H](CN1CCN(c2cc(F)c(F)cc2F)CC1)N1C(=O)CC2(CCCC2)CC1=O |  |  | pKi [1]: 6.54
COc1ccccc1N1CCN(CC(O)COc2cccc3ccccc23)CC1 (stereo not given) [NAFTOPIDIL] | 8.43 |  | 
CC(C)Oc1ccccc1N1CCN(CCNC(=O)CN2CCCCC2=O)CC1 [RWJ-38063] | 8.03 |  | 
CC(C)Oc1ccccc1N1CCN(CCNC(=O)CN2CCCCCC2=O)CC1 [RWJ-68157] | 7.66 |  | 
CC(C)Oc1ccccc1N1CCN(CCCNC(=O)CN2CCCCC2=O)CC1 [RWJ-69736] |  | 9.19 | 
C[C@H](Cc1cc2c(c(C(N)=O)c1)N(CCCO)CC2)NCCOc1ccccc1OCC(F)(F)F [SILODOSIN] |  | 10.44 | 
O=C(CCCN1CCC2(CC1)C(=O)NCN2c1ccccc1)c1ccc(F)cc1 [SPIPERONE] | 8.10 |  | 
